Measured values as given in ChEMBL document CHEMBL5257124, “Design, synthesis and biological evaluation of novel indole-piperazine derivatives as antibacterial agents” (Bioorg Med Chem Lett, 2023).
≈ marks a conversion by molar mass, not a printed value. Calls of active or inactive are those of the source. The rule behind the calls is not given here.

Tests used:
[1] = tested on: Staphylococcus aureus; experiment: Antibacterial activity against methicillin resistant Staphylococcus aureus assessed as reduction in bacterial growth at 8 microg/ml measured for 2 hrs; format: functional; conditions: dose 8 µg/ml
[2] = tested on: Staphylococcus aureus; experiment: Bactericidal activity against methicillin resistant Staphylococcus aureus ATCC 33591 assessed as reduction in bacterial growth; format: functional
[3] = tested on: Pseudomonas syringae; experiment: Antibacterial activity against Pseudomonas syringae pv. actinidiae assessed as bacterial growth inhibition; format: functional
[4] = tested on: Staphylococcus aureus; experiment: Antibacterial activity against methicillin resistant Staphylococcus aureus ATCC 33591 assessed as reduction in bacterial growth; format: functional
[5] = tested on: Staphylococcus aureus; experiment: Antibacterial activity against methicillin resistant Staphylococcus aureus assessed as reduction in bacterial growth at 16 microg/ml measured for 2 hrs; format: functional; conditions: dose 16 µg/ml
[6] = tested on: Escherichia coli; experiment: Bactericidal activity against Escherichia coli ATCC 25922 assessed as reduction in bacterial growth; format: functional
[7] = tested on: Bacillus cereus; experiment: Antibacterial activity against Bacillus cereus assessed as reduction in bacterial growth; format: functional
[8] = tested on: PC-12; experiment: Cytotoxicity against rat PC12 cells assessed as inhibition of cell growth at 20 to 50 microg/ml measured for 24 hrs by MTT assay; format: toxicity, cell-based; conditions: pc-12, 24 h, dose 20-50 µg/ml
[9] = tested on: Ralstonia solanacearum; experiment: Antibacterial activity against Ralstonia solanacearum assessed as bacterial growth inhibition; format: functional
[10] = tested on: Escherichia coli; experiment: Antibacterial activity against Escherichia coli ATCC 25922 assessed as reduction in bacterial growth; format: functional
[11] = tested on: Staphylococcus aureus; experiment: Antibacterial activity against methicillin resistant Staphylococcus aureus assessed as reduction in bacterial growth at 8 times MIC measured at 24 hrs by time kill assay; format: functional, organism-based
[12] = tested on: Staphylococcus aureus; experiment: Bactericidal activity against Staphylococcus aureus ATCC 25923 assessed as reduction in bacterial growth; format: functional
[13] = tested on: BV-2; experiment: Cytotoxicity against mouse BV-2 cells assessed as inhibition of cell growth at 20 to 50 microg/ml measured for 24 hrs by MTT assay; format: toxicity, cell-based; conditions: bv-2, 24 h, dose 20-50 µg/ml
[14] = tested on: Staphylococcus aureus; experiment: Antibacterial activity against Staphylococcus aureus ATCC 25923 assessed as reduction in bacterial growth; format: functional
[15] = tested on: Staphylococcus aureus; experiment: Antibacterial activity against methicillin resistant Staphylococcus aureus assessed as reduction in bacterial growth at 1 times MIC by time kill assay; format: functional, organism-based
[16] = tested on: Staphylococcus aureus; experiment: Antibacterial activity against methicillin resistant Staphylococcus aureus assessed as reduction in bacterial growth at 0.5 microg/ml measured for 2 hrs; format: functional; conditions: dose 0.5 µg/ml
[17] = tested on: Staphylococcus aureus; experiment: Antibacterial activity against methicillin resistant Staphylococcus aureus assessed as reduction in bacterial growth at 1 microg/ml measured for 2 hrs; format: functional; conditions: dose 1 µg/ml
[18] = tested on: Staphylococcus aureus; experiment: Antibacterial activity against methicillin resistant Staphylococcus aureus assessed as reduction in bacterial growth at 8 times MIC measured at 12 hrs by time kill assay; format: functional; set-up: scale not given: the % may be the effect or the level left
[19] = biological target: Histone deacetylase 1 (Homo sapiens, UniProt Q13547); experiment: Inhibition of full length C-terminal His/FLAG tagged human recombinant HDAC1 (1 to 482 residues) expressed in baculovirus-infected Sf9 cells using RHK-K(Ac)-AMC as substrate incubated for 2 hrs
Chain of Histone deacetylase 1 (Q13547 whole entry, the tested form may be a part): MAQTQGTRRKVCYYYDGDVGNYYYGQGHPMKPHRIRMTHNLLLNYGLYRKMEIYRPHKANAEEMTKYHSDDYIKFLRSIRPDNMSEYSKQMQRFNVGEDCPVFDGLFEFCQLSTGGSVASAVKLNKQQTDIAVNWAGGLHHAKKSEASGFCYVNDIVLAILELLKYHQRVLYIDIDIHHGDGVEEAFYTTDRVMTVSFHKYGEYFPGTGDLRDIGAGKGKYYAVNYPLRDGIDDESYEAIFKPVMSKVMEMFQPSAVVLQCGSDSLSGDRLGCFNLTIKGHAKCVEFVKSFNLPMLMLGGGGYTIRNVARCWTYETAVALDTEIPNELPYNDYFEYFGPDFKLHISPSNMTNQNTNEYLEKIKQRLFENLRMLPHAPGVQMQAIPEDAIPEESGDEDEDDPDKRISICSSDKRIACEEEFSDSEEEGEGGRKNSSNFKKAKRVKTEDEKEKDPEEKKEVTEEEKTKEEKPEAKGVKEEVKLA

[20] = tested on: Staphylococcus aureus; experiment: Drug resistance against Staphylococcus aureus assessed as fold increase in MIC measured after 19 passaging for 19 days; format: functional; conditions: time 19 day
[21] = tested on: Staphylococcus aureus; experiment: Antibacterial activity against methicillin resistant Staphylococcus aureus assessed as reduction in bacterial growth at 2 microg/ml measured for 2 hrs; format: functional; conditions: dose 2 µg/ml
[22] = tested on: Staphylococcus aureus; experiment: Antibacterial activity against methicillin resistant Staphylococcus aureus assessed as reduction in bacterial growth at 2 times MIC measured at 24 hrs by time kill assay; format: functional; set-up: scale not given: the % may be the effect or the level left
[23] = tested on: Staphylococcus aureus; experiment: Antibacterial activity against methicillin resistant Staphylococcus aureus assessed as reduction in bacterial growth at 4 times MIC measured at 24 hrs by time kill assay; format: functional; set-up: scale not given: the % may be the effect or the level left

Compound	MBC [2] [µg/mL]	MIC [3] [µg/mL]	MIC [4] [µg/mL]	MBC [6] [µg/mL]	MIC [7] [µg/mL]	MIC [9] [µg/mL]	MIC [10] [µg/mL]	Activity [11]	MBC [12] [µg/mL]	MIC [14] [µg/mL]	other results
FC(F)(F)c1ccc(CN2CCN(Cc3c[nH]c4ccc(Cl)cc34)CC2)c(N2CCCC2)c1	8 (≈ 16.8 µM)	8 (≈ 16.8 µM)	4 (≈ 8.39 µM)	32 (≈ 67.1 µM)	4 (≈ 8.39 µM)	8 (≈ 16.8 µM)	16 (≈ 33.5 µM)	Active	8 (≈ 16.8 µM)	4 (≈ 8.39 µM)	PAE [1]: 0.36 h; PAE [5]: 0.61 h; Activity [8]: Non-Toxic; Activity [13]: Non-Toxic
CO[C@H]1/C=C/O[C@@]2(C)Oc3c(C)c(O)c4c(O)c(c(/C=N/N5CCN(C)CC5)c(O)c4c3C2=O)NC(=O)/C(C)=C\C=C\[C@H](C)[C@H](O)[C@@H](C)[C@@H](O)[C@@H](C)[C@H](OC(C)=O)[C@@H]1C [RIFAMPIN]	1 (≈ 1.22 µM)		0.25 (≈ 0.304 µM)	8 (≈ 9.72 µM)			4 (≈ 4.86 µM)	Active	2 (≈ 2.43 µM)	0.25 (≈ 0.304 µM)	Activity [15]: Active; PAE [16]: 1.8 h; PAE [17]: 3.45 h; Activity [18]: 99.9%
O=C1CN(Cc2ccc(C(=O)NO)cc2)C(=O)[C@H](Cc2c[nH]c3ccccc23)N1											IC50 [19]: 405 nM
GENTAMICIN	> 128	8	> 128	4	8	16	4		8	4	
O=[N+]([O-])c1ccc2[nH]cc(CN3CCN(Cc4ccc(C(F)(F)F)cc4N4CCCC4)CC3)c2c1		32 (≈ 65.6 µM)	16 (≈ 32.8 µM)		16 (≈ 32.8 µM)	32 (≈ 65.6 µM)	32 (≈ 65.6 µM)			16 (≈ 32.8 µM)	
Cn1cc(CN2CCN(Cc3ccc(Cl)cc3Cl)CC2)c2cc(Br)ccc21	8 (≈ 17.1 µM)	16 (≈ 34.2 µM)	4 (≈ 8.56 µM)	16 (≈ 34.2 µM)	8 (≈ 17.1 µM)	32 (≈ 68.5 µM)	16 (≈ 34.2 µM)		16 (≈ 34.2 µM)	8 (≈ 17.1 µM)	
Cn1cc(CN2CCN(Cc3ccc(Cl)cc3Cl)CC2)c2cc(Cl)ccc21	8 (≈ 18.9 µM)	8 (≈ 18.9 µM)	4 (≈ 9.46 µM)	16 (≈ 37.8 µM)	4 (≈ 9.46 µM)	8 (≈ 18.9 µM)	16 (≈ 37.8 µM)	Active	8 (≈ 18.9 µM)	4 (≈ 9.46 µM)	Activity [15]: Active; PAE [1]: 1.6 h; PAE [5]: 2.21 h; Activity [8]: Non-Toxic; fold change (FC) [20]: <4; Activity [13]: Non-Toxic
Cn1cc(CN2CCN(Cc3ccc(C(F)(F)F)cc3N3CCCC3)CC2)c2cc(C#N)ccc21		32 (≈ 66.4 µM)	16 (≈ 33.2 µM)		16 (≈ 33.2 µM)	32 (≈ 66.4 µM)	32 (≈ 66.4 µM)			16 (≈ 33.2 µM)	
FC(F)(F)c1ccc(CN2CCN(Cc3c[nH]c4ccc(Br)cc34)CC2)c(N2CCCC2)c1	16 (≈ 30.7 µM)	32 (≈ 61.4 µM)	8 (≈ 15.3 µM)	32 (≈ 61.4 µM)	8 (≈ 15.3 µM)	32 (≈ 61.4 µM)	32 (≈ 61.4 µM)		16 (≈ 30.7 µM)	8 (≈ 15.3 µM)	
O=C(O)c1cn(C2CC2)c2cc(N3CCNCC3)c(F)cc2c1=O [CIPROFLOXACIN]	2 (≈ 6.04 µM)		0.5 (≈ 1.51 µM)	1 (≈ 3.02 µM)				Active		0.5 (≈ 1.51 µM)	Activity [15]: Active; PAE [21]: 1.58 h; PAE [17]: 1.22 h; Activity [18]: 99.9%
Clc1ccc(CN2CCN(Cc3c[nH]c4ccc(Br)cc34)CC2)c(Cl)c1	4 (≈ 8.83 µM)	16 (≈ 35.3 µM)	4 (≈ 8.83 µM)	16 (≈ 35.3 µM)	4 (≈ 8.83 µM)	8 (≈ 17.7 µM)	16 (≈ 35.3 µM)		8 (≈ 17.7 µM)	4 (≈ 8.83 µM)	PAE [1]: 1.62 h; PAE [5]: 2.91 h; Activity [8]: Non-Toxic; Activity [22]: 99.5%; fold change (FC) [20]: <4; Activity [23]: 99.9%; Activity [13]: Non-Toxic
O=[N+]([O-])c1ccc2[nH]cc(CN3CCN(Cc4ccc(Cl)cc4Cl)CC3)c2c1		32 (≈ 76.3 µM)	8 (≈ 19.1 µM)		8 (≈ 19.1 µM)	32 (≈ 76.3 µM)	32 (≈ 76.3 µM)			8 (≈ 19.1 µM)	
